Measured values as given in US11242344B2, “(4-hydroxypyrrolidin-2-yl)-heterocyclic compounds and methods of use thereof” (Genentech, Inc., priority 2017, dated 2022).

Key:
VHL Elongin B/C complex = VHL Elongin B/C complex (Homo sapiens (Human), UniProt P40337); assay: Fluorescence Polarization (FP) VHL Binding Assay; details: VHL binding, FP assay; geometric mean where more than one measurement
Outline: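 FP tracer competition using His6-tagged human VHL (E55-D213) co-expressed with Elongin B and C in E. coli, final 2.64 nM, with TAMRA-labelled VHL ligand probe at 1.67 nM final. Buffer 50 mM Tris pH 8.0, 120 mM NaCl, 0.005% NP-40, 1% DMSO; 1 h at room temperature. Pre-assay compound/protein signal subtracted; IC50 from four-parameter fit.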

[1] = target: NanoLuc VHL fusion protein (Homo sapiens (Human), UniProt P40337); assay: VHL HEK-293 BRET Assay (NanoBRET Target Engagement); type: cell-based; details: geometric mean where more than one measurement
Chain of NanoLuc VHL fusion protein (P40337 whole entry, looked up, the tested form may be a part): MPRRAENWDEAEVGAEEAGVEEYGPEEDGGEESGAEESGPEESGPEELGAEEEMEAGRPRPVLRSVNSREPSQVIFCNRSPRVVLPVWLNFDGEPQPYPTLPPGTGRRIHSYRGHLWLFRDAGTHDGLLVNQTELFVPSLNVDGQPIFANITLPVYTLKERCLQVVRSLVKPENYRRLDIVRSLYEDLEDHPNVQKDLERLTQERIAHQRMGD
Chain of NanoLuc VHL fusion protein (Q15370 whole entry partner, looked up, the tested form may be a part): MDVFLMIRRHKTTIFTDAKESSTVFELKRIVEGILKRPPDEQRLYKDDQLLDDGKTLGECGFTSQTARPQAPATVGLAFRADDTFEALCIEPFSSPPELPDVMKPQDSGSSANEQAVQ
Chain of NanoLuc VHL fusion protein (Q15369 whole entry partner, looked up, the tested form may be a part): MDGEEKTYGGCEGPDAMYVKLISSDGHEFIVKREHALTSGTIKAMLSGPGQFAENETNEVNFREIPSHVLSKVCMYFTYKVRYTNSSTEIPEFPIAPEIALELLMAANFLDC
Experimental: The VHL NanoBRET™ Target Engagement Assay analyzes the apparent affinity of test compounds for VHL in cells by competitive displacement of a VHL NanoBRET™ tracer reversibly bound to a NanoLuc® VHL fusion protein stably expressed in the cells. Test compounds were transferred to the assay plate (384 Well White Non-Binding Corning Assay Plates (Corning-3574)) using an Echo 555 Liquid Handler (Labcyte) in 2.5 nL increments and, as appropriate, intermediate stock concentrations of compounds, in order to prepare a titration series. 50 nL of control compound (10 mM; parental unlabeled VHL antagonist; see structure below) and 50 nL of DMSO (negative control) were dispensed into the appropriate control wells. DMSO was backfilled to a final volume of 50 nL as required. 50 nl per well of 1 mM VHL NanoBRET™ Tracer in DMSO (NanoBRET™ Tracer-PEG2-590 (see structure below)) was transferred into each well using an Echo 555 (ultimately yielding a final concentration of 1 uM). HEK 293 RT VHL-NanoLuc® stable cells were cultured in DMEM High Glucose with Pyruvate, 10% fetal bovine serum, 2 mg/mL of Geneticin Selective Antibiotic (50 mg/ml) and 2 mM HEPES (1 M). Cells were seeded in Opti-MEM (Life Technologies-11058-021), 1.7×10^5 cells/mL, 40 μl per well into the assay plate, centrifuged at 500 rpm for 30 seconds and incubated for 2 hours. Max Signal control wells consisted of DMSO only treated wells. Minimum Signal control wells contained of 10 uM parental unlabeled VHL antagonist (control compound—see structure below). 3× Complete Substrate plus Inhibitor Solution was prepared in Opti-MEM (consists of a 1:166 dilution of NanoBRET™ Nano-Glo® Substrate plus a 1:500 dilution of Extracellular NanoLuc® Inhibitor in Opti-MEM), and 20 ul was dispensed into each well of the 384-well plate and centrifuged at 1000 rpm for 1 minute, then incubated for 2 minutes at room temperature. Background Signal control wells were prepared without tracer for background correction steps. Plates were read using a PerkinElmer Envision Reader (model 2104-0020) equipped with Luminescence option (Mirror: BRET2 Enh (PE Barcode 659), Emission Filter: Omega 610LP (Barcode 504), 2nd Emission Filter: Umbelliferone 460 (Barcode 207), Measurement height: 6.5 mm, Measurement time: 1 s). The raw BRET ratio values were calculated by dividing the acceptor emission value (610 nm) by the donor emission value (460 nm) for each sample. To correct for background, the BRET ratio in the absence of tracer (average of no-tracer control samples) was subtracted from the BRET ratio of each sample. Raw BRET units were converted to milliBRET units (mBU) by multiplying each raw BRET value by 1,000. The normalized NanoBRET™ signal was calculated relative to the Max Signal control wells (DMSO treated control wells) and the Minimum Signal control wells. Percentage inhibition was calculated relative to the Minimum Signal control and Maximum Signal control wells. IC50 values were derived by four parameter curve fitting using the Robust method.

[2] = target: VHL co-expressed with Elongins B and C (Homo sapiens (Human), UniProt P40337); assay: Surface Plasmon Resonance Assay; type: binding; details: SPR measured VHL affinity; geometric mean where more than one measurement
Chain of VHL co-expressed with Elongins B and C (P40337 whole entry, looked up): as the sequence (P40337 whole entry, looked up, the tested form may be a part) above
Chain of VHL co-expressed with Elongins B and C (Q15370 whole entry partner, looked up): as the sequence (Q15370 whole entry partner, looked up, the tested form may be a part) above
Chain of VHL co-expressed with Elongins B and C (Q15369 whole entry partner, looked up): as the sequence (Q15369 whole entry partner, looked up, the tested form may be a part) above
Outline: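 Avidin-tagged VHL co-expressed with Elongins B and C captured on a streptavidin chip. Compounds injected low-to-high concentration at 20 °C and 80 μL/min in 50 mM HEPES pH 7.2, 150 mM NaCl, 0.5 mM TCEP, 0.001% Tween 20, 0.2% PEG3350, 2% DMSO. Kinetic parameters from fits of binding curves.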

Chain of VHL Elongin B/C complex (P40337 whole entry, looked up): as the sequence (P40337 whole entry, looked up, the tested form may be a part) above
Chain of VHL Elongin B/C complex (Q15370 whole entry partner, looked up): as the sequence (Q15370 whole entry partner, looked up, the tested form may be a part) above
Chain of VHL Elongin B/C complex (Q15369 whole entry partner, looked up): as the sequence (Q15369 whole entry partner, looked up, the tested form may be a part) above

SMILES	IC50 (VHL Elongin B/C complex)	IC50 [1]	Kd [2]
Cc1cc(C(C(=O)N2C[C@H](O)CC2C2=NC(=O)[C@](C)(c3ccc(-c4scnc4C)cc3)N2)C(C)C)sn1 (single isomer, unassigned) [Example 119.3]	72.4 µM	71.1 µM	17.5 µM
CC(=O)N1CCCCC1C(=O)N1C[C@H](O)CC1C1=NC(=O)[C@](C)(c2ccc(-c3scnc3C)cc2)N1 (single isomer, unassigned) [Example 124.1]	≥ 400 µM	100 µM	≥ 150 µM
Cc1cc(C(C(=O)N2C[C@H](O)C[C@H]2C2=NN(CC(F)(F)F)C(C)(C)N2)C(C)C)on1 (single isomer, unassigned) [Example 134.2]	48.2 µM	41.3 µM	57.4 µM
Cc1ncsc1-c1ccc([C@]2(C)NC(C3C[C@@H](O)CN3C(=O)C3N(S(C)(=O)=O)CCC3(C)C)=NC2=O)cc1 (single isomer, unassigned) [Example 125.3]	≥ 400 µM	100 µM	≥ 150 µM
Cc1cc([C@H](C(=O)N2C[C@H](O)C[C@H]2C2=NOC(c3ccc(Br)cc3)(C(F)(F)F)N2)C(C)C)on1 (single isomer, unassigned) [Example 133.3]	34.4 µM	22.6 µM	36.3 µM
Cc1noc(C(C(=O)N2C[C@H](O)CC2C2=NC(=O)[C@](C)(c3ccc(-c4scnc4C)cc3)N2)C(C)C)n1 (single isomer, unassigned) [Example 117.4]	≥ 400 µM	100 µM	150 µM
Cc1cc(C(C(=O)N2C[C@H](O)CC2C2=NC(=O)[C@](C)(c3ccc(-c4scnc4C)cc3)N2)C(C)C)sn1 (single isomer, unassigned) [Example 119.4]	≥ 400 µM	100 µM	150 µM
Cc1ncsc1-c1ccc([C@]2(C)NC(C3C[C@@H](O)CN3C(=O)C(c3cnn(C)c3)C(C)C)=NC2=O)cc1 (single isomer, unassigned) [Example 110.3]	≥ 400 µM	≥ 100 µM	150 µM
Cc1noc(C(C(=O)N2C[C@H](O)CC2C2=NC(=O)[C@](C)(c3ccc(-c4scnc4C)cc3)N2)C(C)C)n1 (single isomer, unassigned) [Example 117.1]	≥ 400 µM	100 µM	155 µM
Cc1cc([C@H](C(=O)N2C[C@H](O)C[C@H]2C2=NO[C@@](c3ccccc3)(C(F)(F)F)N2)C(C)C)on1 (mixture of isomers) [Example 114.3, (2S)-1-((2S,4R)-4-Hydroxy-2-(5-phenyl-5-(trifluoromethyl)-4,5-dihydro-1,2,4-oxadiazol-3-yl)pyrrolidin-1-yl)-3-methyl-2-(3-methylisoxazol-5-yl)butan-1-one and (2R)-1-((2S,4R)-4-Hydroxy-2-(5-phenyl-5-(trifluoromethyl)-4,5-dihydro-1,2,4-oxadiazol-3-yl)pyrrolidin-1-yl)-3-methyl-2-(3-methylisoxazol-5-yl)butan-1-one]	47 µM	48.8 µM	8.8 µM
Cc1cc([C@H](C(=O)N2C[C@H](O)C[C@H]2C2=NOC(c3ccccc3)(c3ccccc3)N2)C(C)C)on1 [Example 132.2, (R)-1-((2S,4R)-2-(5,5-diphenyl-4,5-dihydro-1,2,4-oxadiazol-3-yl)-4-hydroxypyrrolidin-1-yl)-3-methyl-2-(3-methylisoxazol-5-yl)butan-1-one]	45.7 µM	39.4 µM	12.6 µM
Cc1ncsc1-c1ccc([C@]2(C)NC(C3C[C@@H](O)CN3C(=O)C(c3cnn(C)c3)C(C)C)=NC2=O)cc1 (single isomer, unassigned) [Example 110.2]	≥ 400 µM	≥ 100 µM	104 µM
Cc1cc(C(C(=O)N2C[C@H](O)C[C@H]2C2=NN(CC(F)(F)F)C(C)(C)N2)C(C)C)on1 (single isomer, unassigned) [Example 134.1]	≥ 400 µM	100 µM	≥ 150 µM
Cc1noc(C(C(=O)N2C[C@H](O)CC2C2=NC(=O)[C@](C)(c3ccc(-c4scnc4C)cc3)N2)C(C)C)n1 (single isomer, unassigned) [Example 117.2]	1.62 µM	1.9 µM	0.625 µM
Cc1ncsc1-c1ccc([C@]2(C)NC(C3C[C@@H](O)CN3C(=O)C(c3cc(O)no3)C(C)C)=NC2=O)cc1 (single isomer, unassigned) [Example 116.1]	4.35 µM	100 µM	5.1 µM
Cc1noc(C(C(=O)N2C[C@H](O)CC2C2=NC(=O)[C@](C)(c3ccc(-c4scnc4C)cc3)N2)C(C)C)n1 (single isomer, unassigned) [Example 117.3]	≥ 400 µM	100 µM	217 µM
Cc1ncsc1-c1ccc([C@]2(C)NC(C3C[C@@H](O)CN3C(=O)C3N(S(C)(=O)=O)CCC3(C)C)=NC2=O)cc1 (single isomer, unassigned) [Example 125.1]	179 µM	100 µM	14.7 µM
Cc1cc([C@H](C(=O)N2C[C@H](O)C[C@H]2C2=NO[C@](c3ccccc3)(C(F)(F)F)N2)C(C)C)on1 (mixture of isomers) [Example 114.2, (2S)-1-((2S,4R)-4-Hydroxy-2-(5-phenyl-5-(trifluoromethyl)-4,5-dihydro-1,2,4-oxadiazol-3-yl)pyrrolidin-1-yl)-3-methyl-2-(3-methylisoxazol-5-yl)butan-1-one and (2R)-1-((2S,4R)-4-Hydroxy-2-(5-phenyl-5-(trifluoromethyl)-4,5-dihydro-1,2,4-oxadiazol-3-yl)pyrrolidin-1-yl)-3-methyl-2-(3-methylisoxazol-5-yl)butan-1-one]	400 µM	100 µM	150 µM
CC/C(=C(\c1ccc(O)cc1)c1ccc(OCCN(C)C(=O)CCCOCCOc2cc(C(C(=O)N3C[C@H](O)CC3C3=NC(=O)[C@](C)(c4ccc(-c5scnc5C)cc4)N3)C(C)C)on2)cc1)c1ccccc1 (single isomer, unassigned) [Example 1003.1]	≥ 400 µM	≥ 100 µM	67.1 µM
Cc1cc([C@@H](C(=O)N2C[C@H](O)C[C@H]2C2=NOC(c3ccccc3)(c3ccccc3)N2)C(C)C)on1 [Example 132.1, (S)-1-((2S,4R)-2-(5,5-diphenyl-4,5-dihydro-1,2,4-oxadiazol-3-yl)-4-hydroxypyrrolidin-1-yl)-3-methyl-2-(3-methylisoxazol-5-yl)butan-1-one]	≥ 400 µM	100 µM	≥ 150 µM
Cc1cc([C@@H](C(=O)N2C[C@H](O)C[C@H]2C2=NO[C@](C)(c3ccc(Br)cc3)N2)C(C)C)on1 (mixture of isomers) [Example 113.3, (2S)-1-((2S,4R)-2-(5-(4-Bromophenyl)-5-methyl-4,5-dihydro-1,2,4-oxadiazol-3-yl)-4-hydroxypyrrolidin-1-yl)-3-methyl-2-(3-methylisoxazol-5-yl)butan-1-one and (2R)-1-((2S,4R)-2-(5-(4-Bromophenyl)-5-methyl-4,5-dihydro-1,2,4-oxadiazol-3-yl)-4-hydroxypyrrolidin-1-yl)-3-methyl-2-(3-methylisoxazol-5-yl)butan-1-one]	400 µM	100 µM	90.8 µM
